From ChEMBL document CHEMBL1156829 (Proc Natl Acad Sci U S A, 2008) come the findings set out here.

Each structure is given as a SMILES string. Several values for one entry are separate records, joined by “and”; a condition that tells them apart may be missing. Identical values can stand only once. A value given as a limit tells only on which side of the number the result lay.

The subject of data set [1] is Plasmodium falciparum. The data set is described as follows: NOVARTIS: Inhibition of Plasmodium falciparum W2 (drug-resistant) proliferation in erythrocyte-based infection assay. The format is functional, organism-based. Conditions: read-out: EC50.
Data set [2] deals with Plasmodium falciparum. The data set is described as follows: NOVARTIS: Inhibition of Plasmodium falciparum 3D7 (drug-susceptible) proliferation in erythrocyte-based infection assay. Format: functional, organism-based.
For another data set, the system named is Huh-7. The data set is described as follows: NOVARTIS: Cytotoxicity against human hepatocellular carcinoma cell line (Huh7). Format: toxicity, cell-based. Conditions: huh-7, read-out: CC50.

As to `CC[n+]1c(/C=C/N(C)c2ccccc2)n(-c2ccccc2)c2ccc(-c3nc4ccccc4s3)cc21`, the EC50 (in general, the concentration giving half of the maximal effect) in the data set on Plasmodium falciparum [1] was > 1730 nM and 314 nM; in the data set with Plasmodium falciparum [2], > 929 nM and 460 nM. Moreover, the CC50 (commonly the concentration at which the toxic effect on the cells reaches its halfway point) in the data set on Huh-7 was > 10000 nM and 26900 nM.

Regarding `CCN1C(=Cc2sc3ccccc3[n+]2C)C=Cc2cccc(C)c21`, the EC50 in the data set with Plasmodium falciparum [1] amounted to 800 nM; in the data set on Plasmodium falciparum [2], 493 nM. For the same compound, the half-maximal cytotoxic concentration (CC50) with Huh-7 was over 10000 nM.

In the case of `CC[n+]1c(C=C2Sc3ccccc3N2CCO)sc2ccccc21`, the half-maximal effective concentration (EC50) was over 1480 nM with Plasmodium falciparum [1] and 1410 nM with Plasmodium falciparum [2]. In addition, the CC50 with Huh-7 was over 10000 nM.

With `Cc1ccc(N=C2NC(=O)/C(=C\c3ccc(N(C)C)cc3)S2)cc1`, the concentration giving a half-maximal response (EC50) in the data set on Plasmodium falciparum [1] was 488 nM and 1250 nM; in the data set with Plasmodium falciparum [2] it was 615 nM and 1470 nM. The CC50 in the data set with Huh-7 was over 100000 nM.

With `CCN1/C(=C/c2[se]c3ccccc3[n+]2CC)C=Cc2cc(OC)ccc21`, the EC50 came out at 977 nM with Plasmodium falciparum [1] and 1590 nM with Plasmodium falciparum [2]. Further, the 50% cytotoxic concentration (CC50) with Huh-7 was determined as 12700 nM.

Turning to `Cn1cc(/C=C/c2cc[n+](C)cc2)c2ccccc21`, in the data set with Plasmodium falciparum [2], the concentration for a half-maximal effect (EC50) was found to be 216 nM. Further, the 50% cytotoxic concentration (CC50) in the data set on Huh-7 amounted to 7700 nM.

Consider `CCN(CC)c1ccc(C=Cc2cccc[n+]2CC)cc1`, for which the EC50 in the data set on Plasmodium falciparum [1] is 290 nM; in the data set with Plasmodium falciparum [2], 2.44 nM. The cytotoxic concentration (CC50) in the data set with Huh-7 was over 10000 nM.

`CCCC[n+]1c(C=C2C=Cc3ccccc3N2CC)sc2ccccc21`: the concentration for a half-maximal effect (EC50) came out at 228 nM in the data set on Plasmodium falciparum [1] and 81.5 nM in the data set with Plasmodium falciparum [2]. Further, in the data set with Huh-7, the CC50 was 6120 nM.

On to `CC[n+]1c(/C=C2\Sc3ccccc3N2CCO)ccc2cc(C)ccc21`, for which the EC50 with Plasmodium falciparum [1] (Plasmodium falciparum, W2) was over 248 nM; with Plasmodium falciparum [1], 142 nM. Besides, the CC50 with Huh-7 was > 10000 nM and 56300 nM.

With `CCN1C(=Cc2sc3ccccc3[n+]2CC)[Se]c2ccccc21`, the concentration giving a half-maximal response (EC50) in the data set on Plasmodium falciparum [2] was determined as 156 nM; with Plasmodium falciparum [2] (Plasmodium falciparum, 3D7) it was 230 nM. In the data set with Huh-7, the CC50 is 5340 nM and 11800 nM.

As to `CC[n+]1ccccc1C=Cc1ccc(N(C)C)cc1`, the concentration for a half-maximal effect (EC50) in the data set on Plasmodium falciparum [1] is 1270 nM and 271 nM and 380 nM; with Plasmodium falciparum [2], 260 nM and 350 nM; in the data set on Plasmodium falciparum [2] (Plasmodium falciparum, 3D7), 364 nM. The CC50 with Huh-7 was 15200 nM and > 10000 nM and > 100000 nM.

In the case of `CC[n+]1c(C=CN(C)c2ccccc2)oc(-c2ccccc2)c1-c1ccccc1`, the EC50 with Plasmodium falciparum [1] is 410 nM and 105 nM; with Plasmodium falciparum [2] it was 617 nM and 193 nM. The 50% cytotoxic concentration (CC50) in the data set on Huh-7 was > 10000 nM and 2740 nM.

Consider `CCN1/C(=C/c2cccc[n+]2C)C=Cc2ccc(C)cc21`, for which the EC50 in the data set on Plasmodium falciparum [1] (Plasmodium falciparum, W2) was 328 nM; in the data set with Plasmodium falciparum [1], 448 nM; in the data set with Plasmodium falciparum [2], 225 nM and 489 nM. The CC50 in the data set on Huh-7 was over 49800 nM.

Turning to `COc1cc(/C=C2/SC(=Nc3ccccc3)NC2=O)ccc1OCc1ccccc1F`, the EC50 with Plasmodium falciparum [1] is over 12500 nM; in the data set with Plasmodium falciparum [2] it was > 1100 nM and 3670 nM. Also, in the data set with Huh-7, the half-maximal cytotoxic concentration (CC50) was over 100000 nM.

For the compound `CC[n+]1c(C=CN(C)C)sc2ccccc21`, the EC50 in the data set on Plasmodium falciparum [1] is 462 nM; in the data set on Plasmodium falciparum [2] it was 443 nM. For the same compound, in the data set with Huh-7, the CC50 was over 10000 nM.

Regarding `CC[n+]1c(/C=C2\Sc3ccc(C)cc3N2CCO)ccc2ccccc21`, the CC50 in the data set with Huh-7 is > 10000 nM and 29400 nM.

Consider `CC[n+]1c(/C=C2\C=Cc3cc(C)ccc3N2C)ccc2cc(C)ccc21`, for which the EC50 is over 1250 nM in the data set on Plasmodium falciparum [1] (Plasmodium falciparum, W2); 961 nM in the data set on Plasmodium falciparum [1]; > 1150 nM and 225 nM with Plasmodium falciparum [2]. Moreover, the CC50 with Huh-7 was > 10000 nM and 32100 nM.

`Cc1ccc(N=C2S/C(=C\c3c(Cl)cccc3Cl)C(=O)N2c2ccc(C)c(C)c2)cc1C`: the EC50 in the data set on Plasmodium falciparum [1] is 1340 nM and 4810 nM. Further, the CC50 in the data set on Huh-7 was over 100000 nM.

`CCOC(=O)c1ccc(-n2c(C)cc(/C=C3\SC(=Nc4ccc(Cl)cc4)NC3=O)c2C)cc1`: the EC50 in the data set with Plasmodium falciparum [1] (Plasmodium falciparum, W2) is 1700 nM; with Plasmodium falciparum [1], 1420 nM; in the data set with Plasmodium falciparum [2] it was 844 nM and 3370 nM. Moreover, in the data set on Huh-7, the CC50 is over 100000 nM.

Regarding `Cc1ccc2c(c1)N(C)/C(=C/c1cccc[n+]1C)S2`, it took 825 nM to reach a half-maximal effect in the data set with Plasmodium falciparum [2] (EC50). In addition, the half-maximal cytotoxic concentration (CC50) with Huh-7 was > 10000 nM and 22700 nM.

Turning to `CCN1/C(=C/c2cccc[n+]2C)Sc2ccccc21`, the EC50 in the data set with Plasmodium falciparum [1] is 1070 nM and 2700 nM; in the data set with Plasmodium falciparum [2] it was 4250 nM and 440 nM. In addition, in the data set on Huh-7, the CC50 is over 100000 nM.

For the compound `CC[n+]1c(/C=C2\Sc3cc(C)ccc3N2CCO)ccc2ccccc21`, the EC50 in the data set on Plasmodium falciparum [1] was 861 nM and 228 nM; with Plasmodium falciparum [2] it was 1200 nM and 195 nM. In addition, the CC50 in the data set with Huh-7 is > 10000 nM and 21300 nM.

For the compound `O=C(Nc1ccc(-c2nc3cc(NC(=O)c4cccc([N+](=O)[O-])c4)ccc3[nH]2)cc1)c1cccc([N+](=O)[O-])c1`, the EC50 in the data set on Plasmodium falciparum [1] is 635 nM and 246 nM; in the data set with Plasmodium falciparum [2], 324 nM; with Plasmodium falciparum [2] (Plasmodium falciparum, 3D7) it was 489 nM. For the same compound, in the data set with Huh-7, the half-maximal cytotoxic concentration (CC50) is 1670 nM and 667 nM.

For the compound `COc1ccc2c(c1)N(C)/C(=C/c1cccc[n+]1C)S2`, the EC50 in the data set with Plasmodium falciparum [1] is > 787 nM and 302 nM; in the data set on Plasmodium falciparum [2] it was 941 nM and 219 nM. Also, the CC50 in the data set on Huh-7 is over 100000 nM.

For `O=C1NN(c2ccccc2)C(=O)/C1=C1/C(=O)N(Cc2cccc3ccccc23)c2ccccc21`, the 50% effective concentration (EC50) in the data set on Plasmodium falciparum [1] was > 1250 nM and 3260 nM; in the data set on Plasmodium falciparum [2], > 541 nM and 5050 nM. In addition, the half-maximal cytotoxic concentration (CC50) in the data set with Huh-7 is over 100000 nM.

`Cc1cc(C)cc(-n2c(C)cc(/C=C3\SC(=Nc4ccc(Cl)cc4)NC3=O)c2C)c1`: in the data set with Plasmodium falciparum [1], the EC50 is 81.1 nM and 704 nM. For the same compound, the CC50 with Huh-7 was over 100000 nM.

Take `CCOc1ccc(Br)cc1/C=C1\SC(=Nc2ccccc2CC)N(c2ccccc2CC)C1=O`: the EC50 in the data set with Plasmodium falciparum [1] is > 1250 nM and 4860 nM; in the data set with Plasmodium falciparum [2] it was 8330 nM and > 835 nM. In addition, the 50% cytotoxic concentration (CC50) in the data set with Huh-7 is over 100000 nM.
